Results as given in PubChem BioAssay (NCI).
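Assay format: 96-well plates, 48-hour exposure. Definition used: TGI = concentration required for complete inhibition of growth.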

Tests used:
Assay in all cases: growth of human tumour cells (NCI), 48 h
NCI-H226 lung = tested on: NCI-H226 lung
CAKI-1 renal = tested on: CAKI-1 renal
SF-268 CNS = tested on: SF-268 CNS
HCC-2998 colon = tested on: HCC-2998 colon
LOX IMVI melanoma = tested on: LOX IMVI melanoma
SK-MEL-28 melanoma = tested on: SK-MEL-28 melanoma
MOLT-4 leukemia = tested on: MOLT-4 leukemia
OVCAR-3 ovarian = tested on: OVCAR-3 ovarian
DMS 114 small cell lung = tested on: DMS 114 small cell lung
HOP-18 NSCLC = tested on: HOP-18 NSCLC
SK-OV-3 ovarian = tested on: SK-OV-3 ovarian
SNB-19 CNS = tested on: SNB-19 CNS
HCT-116 colon = tested on: HCT-116 colon
A498 renal = tested on: A498 renal
DMS 273 small cell lung = tested on: DMS 273 small cell lung
SNB-78 CNS = tested on: SNB-78 CNS
ACHN renal = tested on: ACHN renal
SF-539 CNS = tested on: SF-539 CNS
KM20L2 colon = tested on: KM20L2 colon
RXF 393 renal = tested on: RXF 393 renal
OVCAR-8 ovarian = tested on: OVCAR-8 ovarian
UACC-62 melanoma = tested on: UACC-62 melanoma
A549 NSCLC = tested on: A549 NSCLC
SK-MEL-2 melanoma = tested on: SK-MEL-2 melanoma
DLD-1 colon = tested on: DLD-1 colon
CCRF-CEM leukemia = tested on: CCRF-CEM leukemia
OVCAR-5 ovarian = tested on: OVCAR-5 ovarian
IGROV1 ovarian = tested on: IGROV1 ovarian
M14 melanoma = tested on: M14 melanoma
OVCAR-4 ovarian = tested on: OVCAR-4 ovarian
HT29 colon = tested on: HT29 colon
SK-MEL-5 melanoma = tested on: SK-MEL-5 melanoma
HL-60(TB) leukemia = tested on: HL-60(TB) leukemia
HCT-15 colon = tested on: HCT-15 colon
HOP-62 NSCLC = tested on: HOP-62 NSCLC
SNB-75 CNS = tested on: SNB-75 CNS
LXFL 529 NSCLC = tested on: LXFL 529 NSCLC
M19-MEL melanoma = tested on: M19-MEL melanoma
RPMI-8226 leukemia = tested on: RPMI-8226 leukemia
SF-295 CNS = tested on: SF-295 CNS
UACC-257 melanoma = tested on: UACC-257 melanoma
K-562 leukemia = tested on: K-562 leukemia
U251 CNS = tested on: U251 CNS
SN12C renal = tested on: SN12C renal
MALME-3M melanoma = tested on: MALME-3M melanoma
COLO 205 colon = tested on: COLO 205 colon
TK-10 renal = tested on: TK-10 renal
NCI-H460 lung = tested on: NCI-H460 lung
KM12 colon = tested on: KM12 colon
NCI-H522 lung = tested on: NCI-H522 lung
SW-620 colon = tested on: SW-620 colon
786-0 renal = tested on: 786-0 renal
NCI-H23 lung = tested on: NCI-H23 lung
UO-31 renal = tested on: UO-31 renal
MCF7 breast = tested on: MCF7 breast
HS 578T breast = tested on: HS 578T breast
DU-145 prostate = tested on: DU-145 prostate
MDA-N = tested on: MDA-N
T-47D breast = tested on: T-47D breast
MDA-MB-231 breast = tested on: MDA-MB-231 breast
MDA-MB-435 = tested on: MDA-MB-435
SR leukemia = tested on: SR leukemia
PC-3 prostate = tested on: PC-3 prostate
BT-549 breast = tested on: BT-549 breast
NCI/ADR-RES ovarian = tested on: NCI/ADR-RES ovarian
HOP-92 NSCLC = tested on: HOP-92 NSCLC
EKVX NSCLC = tested on: EKVX NSCLC

Which results are given for `COc1cccc2c1C1(O)C2CCCC12OCCCO2` (stereo unspecified)?
TGI (NCI-H226 lung): > 100 µM; TGI (CAKI-1 renal): > 100 µM; TGI (SF-268 CNS): > 100 µM; TGI (HCC-2998 colon): > 100 µM; TGI (LOX IMVI melanoma): > 100 µM; TGI (SK-MEL-28 melanoma): > 100 µM; TGI (MOLT-4 leukemia): > 100 µM; TGI (OVCAR-3 ovarian): > 100 µM; TGI (DMS 114 small cell lung): > 100 µM; TGI (HOP-18 NSCLC): > 100 µM; TGI (SK-OV-3 ovarian): > 100 µM; TGI (SNB-19 CNS): > 100 µM; TGI (HCT-116 colon): > 100 µM; TGI (A498 renal): > 100 µM; TGI (DMS 273 small cell lung): > 100 µM; TGI (SNB-78 CNS): > 100 µM; TGI (ACHN renal): > 100 µM; TGI (SF-539 CNS): > 100 µM; TGI (KM20L2 colon): > 100 µM; TGI (RXF 393 renal): > 100 µM; TGI (OVCAR-8 ovarian): > 100 µM; TGI (UACC-62 melanoma): > 100 µM; TGI (A549 NSCLC): > 100 µM; TGI (SK-MEL-2 melanoma): > 100 µM; TGI (DLD-1 colon): > 100 µM; TGI (CCRF-CEM leukemia): > 100 µM; TGI (OVCAR-5 ovarian): > 100 µM; TGI (IGROV1 ovarian): > 100 µM; TGI (M14 melanoma): > 100 µM; TGI (OVCAR-4 ovarian): > 100 µM; TGI (HT29 colon): > 100 µM; TGI (SK-MEL-5 melanoma): > 100 µM; TGI (HL-60(TB) leukemia): > 100 µM; TGI (HCT-15 colon): > 100 µM; TGI (HOP-62 NSCLC): > 100 µM; TGI (SNB-75 CNS): > 100 µM; TGI (LXFL 529 NSCLC): > 100 µM; TGI (M19-MEL melanoma): > 100 µM; TGI (RPMI-8226 leukemia): > 100 µM; TGI (SF-295 CNS): > 100 µM; TGI (UACC-257 melanoma): > 100 µM; TGI (K-562 leukemia): > 100 µM; TGI (U251 CNS): > 100 µM; TGI (SN12C renal): > 100 µM; TGI (MALME-3M melanoma): > 100 µM; TGI (COLO 205 colon): > 100 µM; TGI (TK-10 renal): > 100 µM; TGI (NCI-H460 lung): > 100 µM; TGI (KM12 colon): > 100 µM; TGI (NCI-H522 lung): > 100 µM; TGI (SW-620 colon): > 100 µM; TGI (786-0 renal): > 100 µM; TGI (NCI-H23 lung): > 100 µM; TGI (UO-31 renal): > 100 µM

Which TGI (NCI-H226 lung) does the source give for `COc1ccc(/C=C(\C(=C/c2ccc(OC)cc2)[N+](=O)[O-])[N+](=O)[O-])cc1` here?
The TGI was 33 µM.

And the TGI (CAKI-1 renal)?
The TGI was 8.87 µM.

What about the TGI (SF-268 CNS) of the same compound?
Its TGI is 20.8 µM.

And the TGI (HCC-2998 colon)?
Its TGI is 30.9 µM.

And the TGI (LOX IMVI melanoma)?
Its TGI is 5 µM.

And the TGI (MCF7 breast)?
The TGI was 27.3 µM.

What about the TGI (SK-MEL-28 melanoma) of the same compound?
Its TGI is 6.76 µM.

What about the TGI (MOLT-4 leukemia) of the same compound?
Its TGI is > 70.4 µM.

And the TGI (OVCAR-3 ovarian)?
Its TGI is 71.4 µM.

And the TGI (HS 578T breast)?
The TGI was 43.9 µM.

And the TGI (SK-OV-3 ovarian)?
The TGI was 32.4 µM.

And the TGI (SNB-19 CNS)?
Its TGI is 30.2 µM.

What about the TGI (DU-145 prostate) of the same compound?
The TGI was 24.6 µM.

And the TGI (HCT-116 colon)?
Its TGI is 24.8 µM.

And the TGI (MDA-N)?
The TGI was 8.89 µM.

And the TGI (A498 renal)?
The TGI was 79 µM.

What about the TGI (ACHN renal) of the same compound?
The TGI was 17.1 µM.

What about the TGI (SF-539 CNS) of the same compound?
The TGI was 5.71 µM.

What about the TGI (RXF 393 renal) of the same compound?
Its TGI is 4.33 µM.

And the TGI (OVCAR-8 ovarian)?
Its TGI is 5.97 µM.

And the TGI (UACC-62 melanoma)?
The TGI was 9.38 µM.

And the TGI (A549 NSCLC)?
Its TGI is > 61.3 µM.

What about the TGI (SK-MEL-2 melanoma) of the same compound?
The TGI was 39.7 µM.

What about the TGI (T-47D breast) of the same compound?
The TGI was 35.7 µM.

And the TGI (OVCAR-5 ovarian)?
The TGI was 35.4 µM.

What about the TGI (MDA-MB-231 breast) of the same compound?
Its TGI is 5.56 µM.

What about the TGI (IGROV1 ovarian) of the same compound?
The TGI was 15.4 µM.

What about the TGI (MDA-MB-435) of the same compound?
The TGI was 12.1 µM.

And the TGI (M14 melanoma)?
Its TGI is 18.2 µM.

What about the TGI (OVCAR-4 ovarian) of the same compound?
Its TGI is 27.1 µM.

What about the TGI (HT29 colon) of the same compound?
Its TGI is 11.1 µM.

And the TGI (SK-MEL-5 melanoma)?
The TGI was 15.9 µM.

And the TGI (HCT-15 colon)?
The TGI was 6.18 µM.

What about the TGI (SR leukemia) of the same compound?
The TGI was > 100 µM.

And the TGI (PC-3 prostate)?
Its TGI is > 39.7 µM.

What about the TGI (HOP-62 NSCLC) of the same compound?
The TGI was 21.2 µM.

And the TGI (SNB-75 CNS)?
Its TGI is 68.6 µM.

And the TGI (BT-549 breast)?
The TGI was 21.4 µM.

What about the TGI (RPMI-8226 leukemia) of the same compound?
Its TGI is 13 µM.

What about the TGI (SF-295 CNS) of the same compound?
The TGI was 30.2 µM.

What about the TGI (NCI/ADR-RES ovarian) of the same compound?
Its TGI is 7.94 µM.

And the TGI (UACC-257 melanoma)?
The TGI was 17.1 µM.

What about the TGI (HOP-92 NSCLC) of the same compound?
Its TGI is 10 µM.

What about the TGI (K-562 leukemia) of the same compound?
Its TGI is > 34.5 µM.

And the TGI (U251 CNS)?
Its TGI is 8.52 µM.

And the TGI (EKVX NSCLC)?
The TGI was 29.8 µM.

What about the TGI (SN12C renal) of the same compound?
Its TGI is 10.1 µM.

What about the TGI (MALME-3M melanoma) of the same compound?
Its TGI is 11.9 µM.

And the TGI (COLO 205 colon)?
The TGI was 21.6 µM.

What about the TGI (TK-10 renal) of the same compound?
The TGI was 12.2 µM.

What about the TGI (NCI-H460 lung) of the same compound?
The TGI was 12.2 µM.

And the TGI (KM12 colon)?
Its TGI is 36.2 µM.

And the TGI (NCI-H522 lung)?
The TGI was 8.8 µM.

And the TGI (SW-620 colon)?
Its TGI is 7.87 µM.

What about the TGI (786-0 renal) of the same compound?
Its TGI is 4.96 µM.

And the TGI (NCI-H23 lung)?
The TGI was 16 µM.

And the TGI (UO-31 renal)?
The TGI was 16.7 µM.
